Legend:
[1] = pK2 was determined; assay type: ADME; settings: read-out: pK2
[2] = pK1 was determined; assay type: ADME; settings: read-out: pK1

pKa [1]: 9.35
pKa [2]: 3
SMILES: [O-]/[N+](O)=N\O

Source: ChEMBL document CHEMBL1139459, “Effects of pH on the cytotoxicity of sodium trioxodinitrate (Angeli's salt)” (J Med Chem, 2004)
